Data on four compounds can be found in patent publication US20090318461A1, “CRYSTALLINE POLYMORPHISM OF 5-METHYL-2-(PIPERAZIN-1-YL) BENZENESULFONIC ACID” (priority 2006, published 2009).

The test system of one series is cardiomyocytes. The note with it: cited from earlier work.
Series [1] in a line: Measurement of moisture sorption at each relative humidity (water vapor sorption apparatus SGA-100). The format is physicochemical. The note with it: for moisture sorption (weight increase) at relative humidity 50%: 50% RH; for weight change when humidity was reduced from 95% RH to 5% RH after moisture absorption: humidity decrease 95% RH to 5% RH; for hygroscopicity: from moisture sorption isotherm. Here is the method: In the present invention, when moisture sorption at each relative humidity becomes not more than 0.03% in 5 min, or when 3 hours have passed at each relative humidity, the range of relative humidity being from 0% to 95%, the humidity is increased or decreased at 5% intervals, and the moisture sorption isotherms at each relative humidity is obtained gravimetrically by measuring the mass change of a sample.
The above-mentioned moisture sorption can be measured using, for example, SGA-100 type water vapor sorption apparatus (manufactured by VTI) as shown in the Examples. While the error in the relative humidity values depends on the performance of the apparatus, it is about ±1% using this apparatus.
The “moisture sorption” in the present invention refers to the values calculated by the following equation:
moisture sorption (%)=((RM−DM)/DM))*100
wherein DM: sample weight (mg) after sufficient drying at relative humidity 0% RM: sample weight (mg) in the equilibrium state at various relative humidities
For moisture sorption isotherms, when weight variation under each relative humidity condition becomes not more than 0.03% in 5 min, or when 3 hours have passed at each relative humidity, the range of relative humidity being from 0% to 95%, the humidity is increased or decreased at 5% intervals, and the moisture sorption isotherms at each relative humidity is obtained gravimetrically by measuring the mass change of a sample. The “RH” in the preset Examples means “relative humidity”.
5-Methyl-2-(piperazin-1-yl)benzenesulfonic acid monohydrate was dried for 60 min by heating in a sample booth at 80° C. under nitrogen substitution. The sample was used as sample 7 (type-I anhydrate crystal), and measured for moisture sorption from 5% RH.
The sample 2 (type-II anhydrate crystal) obtained in Example 2 was dried for 60 min by heating in a sample booth at 80° C. under nitrogen substitution, and measured for moisture sorption from 5% RH.

A short description of series [2]: Thermal analysis (DSC822e) of monohydrate crystals. To be noted: 25-300° C., 20° C./min, dry nitrogen gas. The format is physicochemical. Here is the method:
In Examples 3, 4 and Experimental Examples 5, 6, each crystal forms was confirmed by powder X-ray diffractometer (manufactured by Bruker) GADDS detector system and thermal analysis equipment (manufactured by Mettler-Toledo) DSC822e system.
For thermal analysis, the measurement was performed in a dry nitrogen gas stream (50 mL/min) from 25° C. to 300° C. at a temperature rise rate of 20° C./min.
Using the solids obtained in Examples 3 and 4 as sample 8 (type-II monohydrate crystal) and sample 9 (type-III monohydrate crystal), respectively, the thermal analysis was performed under the following conditions.
apparatus: DSC822e manufactured by Metter-Toledo temperature rise rate: 20° C./min atmosphere: dry nitrogen gas 50 mL/min measurement temperature: 25-300° C.

Where [3] appears, read: humidity increase from 5% RH to 95% RH.

SMILES strings stand for the structures.

In the case of `Cc1ccc(N2CCNCC2)c(S(=O)(=O)O)c1` [compound A, 5-methyl-2-(piperazin-1-yl)benzenesulfonic acid], the “suppression of excessive influx of calcium ions into cardiomyocytes” value in the series on cardiomyocytes is given as “remarkably suppresses”.

As to `Cc1ccc(N2CCNCC2)c(S(=O)(=O)O)c1` [type-I anhydrate crystal, 5-methyl-2-(piperazin-1-yl)benzenesulfonic acid anhydrate], in series [1] (humidity increase from 5% RH to 95% RH, listed as sample 7), the “moisture sorption (weight increase) at relative humidity 50%” value is reported as “about 6.0%”. In series [1], the “weight change when humidity was reduced from 95% RH to 5% RH after moisture absorption” value was “weight change was not observed”. Moreover, the “relative humidity from which moisture absorption was shown” value in series [1] (setting [3]) is recorded as 10 % RH.

Take `Cc1ccc(N2CCNCC2)c(S(=O)(=O)O)c1` [type-II anhydrate crystal, 5-methyl-2-(piperazin-1-yl)benzenesulfonic acid anhydrate]: in series [1] (0-50% RH, humidity increase from 5% RH to 95% RH), the “moisture sorption in the range of 0-50% RH” value is reported as “about 2.0%”. The “moisture sorption (weight increase) at relative humidity 50%” value in series [1] (setting [3]) is “not more than 2%”. Further, the “weight increase around 60% RH” value in series [1] (around 60% RH, humidity increase from 5% RH to 95% RH) is “about 6.5%”. In series [1], the hygroscopicity entry is on record as “less hygroscopic” and the “weight change when humidity was reduced from 95% RH to 5% RH after moisture absorption” value is reported as “weight change was not observed”. For the same compound, in series [1] (listed as sample 2), the hygroscopicity result is given as “hardly present”.

Consider `Cc1ccc(N2CCNCC2)c(S(=O)(=O)O)c1` [type-II monohydrate crystal, 5-methyl-2-(piperazin-1-yl)benzenesulfonic acid monohydrate], for which the “crystal stability by thermal analysis (no noticeable endothermic and exothermic peaks up to around 80° C.)” value in series [2] is “stable”.
